In patent publication US20200087258A1, “INHIBITOR OF CITRATE TRANSPORTER AND THEIR USE IN THERAPY” (Eternygen GmbH, priority 2017, published 2020):

Molecular target: INDY (Homo sapiens, UniProt Q86YT5)
Experiment: 14C-citrate uptake in HEK293 cells overexpressing recombinant human INDY (NaCT)
Format: cell-based
Set-up: expressed in transfected cells; host or cells: HEK293
Method: The compound was obtained by screening of a library containing more than 50,000 lead-like compounds and fragments. The library was tested using a functional citrate uptake assay with HEK293 cells overexpressing recombinant human INDY. The following hit confirmation was conducted in the same assay system. To confirm the activity of selected compounds on the target INDY another cell assay was conducted. In this assay system citrate uptake was measured using HepG2 cells which endogenously express INDY. Furthermore selectivity of selected compounds was tested for two other transporters in different assay systems. The first transporter was the glutamate transporter GLT-1 tested in a glutamate uptake assays using HEK293 cells overexpressing recombinant human GLT-1. The second transporter was the glucose transporter GLUT1 tested in a glucose uptake assay using Huh-7 cells which endogenously express GLUT1. Compounds were considered to be selective with an at least 5-fold higher activity for INDY than for the other two transporters.
Cells were maintained in cell medium using cell culture grade flasks (CellSTACK Corning, 500 cm2 dishes or T175 depending on cell number). The selection antibiotic and G418 (800 μg/ml) was added during cultivation but not for seeding into assay plates. For splitting, cells were washed with PBS (w/o Ca2+, Mg2+, phenol red) and detached with Trypsin/EDTA. Throughout cultivation cells were kept sub-confluent. Detached cells (50,000 cells/well) were seeded in 96-well plates (white, clear bottom from Corning #655098) and incubated over night before usage in the assay. The following media were used. For HEK293 cells expressing INDY MEM (PAA)+10% FCS+1×P/S+2 mM L-Gln; for HEK293 cells expressing GLT-1 DMEM (Gibco)+10% FCS+400 µg/ml G418; for Huh7 cells DMEM (Gibco)+10% FCS+2 mM L-Gin (+1×P/S); for HepG2 cells MEM (PAA, Cat # E15-024)+10% FCS+2 mM L-Gin+1×NEAA+1 mM Na-Pyruvat
The following assay buffers for the particular uptake reaction were used. Citrate uptake buffer: 120 mM NaCl, 5.4 mM KCl, 0.8 mM MgSO4, 5 mM glucose, 1.8 mM CaCl2, 25 mM Hepes, 25 mM MES, pH 6.5. Glutamate uptake buffer: HBSS, 1 mM CaCl2, 1 mM MgCl2, 20 mM Hepes pH 7.4. Glucose uptake buffer: 25 mM Hepes+25 mM MES pH 7.4, 120 mM NaCl, 5.4 mM KCl, 1.8 mM CaCl2, 0.8 mM MgSO4.
INDY mediated citrate uptake was determined in HEK293 cells. To determine the uptake of ^14C labelled citrate into cells, HEK293 cells over-expressing human NaCT were used. Cloning of human NaCT was done in analogy as described in Birkenfeld et al. (Birkenfeld et al., 2011, Cell Metabolism 14, 184-195, 2011).
Human NaCT HEK293 cells were seeded into white clear-bottom 96-well plates (50,000/well) in the presence of 4 μg/ml Poly-D-Lysine and incubated at 37° C. for 16-24 hours. On the days of the assay the plates were washed once with assay buffer using automated washing/LS 405 Selectors, BioTek ending with a buffer volume of 40 μl. Then 5 μl of compound solution in assay buffer was added and incubated for 5-30 min at 37° C. in cell incubator, HERA cell Heraeus. Afterwards 10 μl of substrate 14C-citrate ([…]/[…] per well) were added and incubated for another 20-90 min at 37° C. in cell incubator, HERAcell. Then plates were washed twice with 200 μl ice-cold assay buffer and residual volume was discarded. For cell lysis 50 μl ice-cold NaOH (100 mM) was added and incubated for 15 minutes at RT on a plate shaker. Finally, 200 μl scintillation fluid (scintillator OptiPhase Supermix, Perkin Elmer) was added. After 15 min incubation at RT without shaking, plates were measured using a TopCount reader system (Perkin Elmer). As a positive control 10 mM citrate was applied. It is possible to use this assay also in analogy in a 384-well plate format.

Chain of INDY (Q86YT5 whole entry): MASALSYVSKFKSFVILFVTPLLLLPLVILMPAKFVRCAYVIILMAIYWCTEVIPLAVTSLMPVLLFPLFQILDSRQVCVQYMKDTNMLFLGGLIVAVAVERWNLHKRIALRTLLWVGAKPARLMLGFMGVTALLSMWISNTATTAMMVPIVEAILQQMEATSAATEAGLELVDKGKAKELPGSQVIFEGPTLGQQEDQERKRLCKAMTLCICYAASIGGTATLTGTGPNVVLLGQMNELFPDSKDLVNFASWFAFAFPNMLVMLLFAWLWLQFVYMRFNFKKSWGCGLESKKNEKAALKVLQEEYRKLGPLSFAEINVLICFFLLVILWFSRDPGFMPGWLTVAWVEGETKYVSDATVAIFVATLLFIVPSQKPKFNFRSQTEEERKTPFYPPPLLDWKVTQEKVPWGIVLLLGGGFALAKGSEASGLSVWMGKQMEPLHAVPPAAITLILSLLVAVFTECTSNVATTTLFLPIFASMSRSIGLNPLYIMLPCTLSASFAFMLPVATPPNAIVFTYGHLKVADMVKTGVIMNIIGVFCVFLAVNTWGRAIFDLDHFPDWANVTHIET

IC50	SMILES
> 20 µM	O=C(NCc1ccccc1C(F)(F)F)C1CCN(S(=O)(=O)/C=C/c2ccccc2)CC1 [Example 11, 1-[(E)-2-phenylethenesulfonyl]-N-{[2-(trifluoromethyl)phenyl]methyl}piperidine-4-carboxamide]
20.6 µM	N#Cc1ccc(S(=O)(=O)N2CCC(C(=O)NCc3ccccc3F)CC2)cc1 [Example 13, 1-(4-cyanobenzenesulfonyl)-N-[(2-fluorophenyl)methyl]piperidine-4-carboxamide]
> 20 µM	O=C(NCc1ccc2[nH]cnc2c1)C1CCN(S(=O)(=O)/C=C/c2ccccc2)CC1 [Example 14, N-[(1H-1,3-benzodiazol-5-yl)methyl]-1-[(E)-2-phenylethenesulfonyl]piperidine-4-carboxamide]
> 20 µM	O=C(NCc1ccccc1F)C1CCN(S(=O)(=O)c2ccc([N+](=O)[O-])cc2)CC1 [Example 17, N-[(2-fluorophenyl)methyl]-1-(4-nitrobenzenesulfonyl)piperidine-4-carboxamide]
> 20 µM	CS(=O)(=O)c1ccccc1CNC(=O)C1CCN(S(=O)(=O)/C=C/c2ccccc2)CC1 [Example 18, N-[(2-methanesulfonylphenyl)methyl]-1-[(E)-2-phenylethenesulfonyl]piperidine-4-carboxamide]
> 20 µM	CC(=O)Nc1ccc(S(=O)(=O)N2CCC(C(=O)NCc3ccccc3F)CC2)cc1 [Example 20, 1-(4-acetamidobenzenesulfonyl)-N-[(2-fluorophenyl)methyl]piperidine-4-carboxamide]
15.2 µM	Cc1ccccc1CNC(=O)C1CCN(S(=O)(=O)/C=C/c2ccccc2)CC1 [Example 31, N-[(2-methylphenyl)methyl]-1-[(E)-2-phenylethenesulfonyl]piperidine-4-carboxamide]
> 20 µM	O=C(NCc1ccccc1N1CCOCC1)C1CCN(S(=O)(=O)/C=C/c2ccccc2)CC1 [Example 40, N-{[2-(morpholin-4-yl)phenyl]methyl}-1-[(E)-2-phenylethenesulfonyl]piperidine-4-carboxamide]
> 20 µM	CC(C)(C)c1ccccc1S(=O)(=O)N1CCC(C(=O)NCc2ccccc2F)CC1 [Example 42, 1-(2-tert-butylbenzenesulfonyl)-N-[(2-fluorophenyl)methyl]piperidine-4-carboxamide]
11.8 µM	O=C(NCc1ccccc1F)C1CCN(S(=O)(=O)c2ccc(F)cc2)CC1 [Example 45, 1-(4-fluorobenzenesulfonyl)-N-[(2-fluorophenyl)methyl]piperidine-4-carboxamide]
> 20 µM	COc1ccc(CNC(=O)C2CCN(S(=O)(=O)/C=C/c3ccccc3)CC2)c(F)c1 [Example 48, N-[(2-fluoro-4-methoxyphenyl)methyl]-1-[(E)-2-phenylethenesulfonyl]piperidine-4-carboxamide]
14.4 µM	CC(C)(C)c1ccc(S(=O)(=O)N2CC(C(=O)NCc3ccccn3)C2)cc1 [Example 51, 1-(4-tert-butylbenzenesulfonyl)-N-[(pyridin-2-yl)methyl]azetidine-3-carboxamide]
> 20 µM	O=C(NCc1ccccc1F)C1CN(S(=O)(=O)c2ccc(C(F)(F)F)cc2)C1 [Example 52, N-[(2-fluorophenyl)methyl]-1-[4-(trifluoromethyl)benzenesulfonyl]azetidine-3-carboxamide]
15.9 µM	N#Cc1ccccc1CNC(=O)C1CCN(S(=O)(=O)/C=C/c2ccccc2)CC1 [Example 53, N-[(2-cyanophenyl)methyl]-1-[(E)-2-phenylethenesulfonyl]piperidine-4-carboxamide]
> 20 µM	CC(C)Oc1ccccc1CNC(=O)C1CCN(S(=O)(=O)/C=C/c2ccccc2)CC1 [Example 54, 1-[(E)-2-phenylethenesulfonyl]-N-{[2-(propan-2-yloxy)phenyl]methyl}piperidine-4-carboxamide]
> 20 µM	O=C(NCc1ccc(F)cc1)C1CCN(S(=O)(=O)/C=C/c2ccccc2)CC1 [Example 56, N-[(4-fluorophenyl)methyl]-1-[(E)-2-phenylethenesulfonyl]piperidine-4-carboxamide]
> 20 µM	COc1ccc(S(=O)(=O)N2CCC(C(=O)NCc3ccccn3)CC2)c(OC)c1 [Example 61, 1-(2,4-dimethoxybenzenesulfonyl)-N-[(pyridin-2-yl)methyl]piperidine-4-carboxamide]
> 20 µM	O=C(NCc1ccccn1)C1CCN(S(=O)(=O)c2c(Cl)cccc2Cl)CC1 [Example 63, 1-(2,6-dichlorobenzenesulfonyl)-N-[(pyridin-2-yl)methyl]piperidine-4-carboxamide]
> 20 µM	CN(C)c1ccc(S(=O)(=O)N2CCC(C(=O)NCc3ccccn3)CC2)cc1 [Example 64, 1-[4-(dimethylamino)benzenesulfonyl]-N-[(pyridin-2-yl)methyl]piperidine-4-carboxamide]
> 20 µM	CN(C)c1ccc(S(=O)(=O)N2CCC(C(=O)NCc3ccccc3F)CC2)cc1 [Example 65, 1-[4-(dimethylamino)benzenesulfonyl]-N-[(2-fluorophenyl)methyl]piperidine-4-carboxamide]
12.9 µM	COC(=O)c1ccccc1CNC(=O)C1CCN(S(=O)(=O)/C=C/c2ccccc2)CC1 [Example 66, methyl 2-[({1-[(E)-2-phenylethenesulfonyl]piperidin-4-yl}formamido)methyl]benzoate]
19.7 µM	O=C(NCc1ccccn1)C1CCN(S(=O)(=O)c2ccc(-c3ccccc3)cc2)CC1 [Example 68, 1-{[1,1′-biphenyl]-4-sulfonyl}-N-[(pyridin-2-yl)methyl]pipendine-4-carboxamide]
> 20 µM	O=C(NCc1ccccn1)C1CCN(S(=O)(=O)c2ccc(N3CCCC3)cc2)CC1 [Example 70, N-[(pyridin-2-yl)methyl]-1-[4-(pyrrolidin-1-yl)benzenesulfonyl]pipendine-4-carboxamide]
14.4 µM	O=C(NCc1ccccn1)C1CCN(S(=O)(=O)c2ccccc2Cl)CC1 [Example 71, 1-(2-chlorobenzenesulfonyl)-N-[(pyridin-2-yl)methyl]pipendine-4-carboxamide]
> 20 µM	O=C(NCc1ccccc1F)C1CCN(S(=O)(=O)c2ccc(O)cc2)CC1 [Example 72, N-[(2-fluorophenyl)methyl]-1-(4-hydroxybenzenesulfonyl)pipendine-4-carboxamide]
> 20 µM	O=C(NCc1ccccn1)C1CCN(S(=O)(=O)c2cccc([N+](=O)[O-])c2)CC1 [Example 76, 1-(3-nitrobenzenesulfonyl)-N-[(pyridin-2-yl)methyl]pipendine-4-carboxamide]
> 20 µM	NC(=O)c1ccc(S(=O)(=O)N2CCC(C(=O)NCc3ccccc3F)CC2)cc1 [Example 77, 1-(4-carbamoylbenzenesulfonyl)-N-[(2-fluorophenyl)methyl]pipendine-4-carboxamide]
> 20 µM	NC(=O)c1ccccc1CNC(=O)C1CCN(S(=O)(=O)c2cc(Cl)cc(Cl)c2)CC1 [Example 80, N-[(2-carbamoylphenyl)methyl]-1-(3,5-dichlorobenzenesulfonyl)pipendine-4-carboxamide]
> 20 µM	O=C(NCc1ccccn1)C1CCN(S(=O)(=O)c2cccc(Cl)c2Cl)CC1 [Example 83, 1-(2,3-dichlorobenzenesulfonyl)-N-[(pyridin-2-yl)methyl]pipendine-4-carboxamide]
> 20 µM	COC(=O)c1cccc(S(=O)(=O)N2CCC(C(=O)NCc3ccccc3F)CC2)c1 [Example 88, methyl 3-[(4-{[(2-fluorophenyl)methyl]carbamoyl}piperidin-1-yl)sulfonyl]benzoate]
